Holding throughout (format): cell-based
Common to all, as to parameters: expressed in transfected cells; host or cells: FLP-In CHO or HEK-293 FLP-In cells (pcDNA5)
What all share (conditions): for EC50: FLIPR

One experiment addresses T1, Mouse NMUR1-CTG (Mus musculus, UniProt O55040).
T1 sequence (O55040 1-428): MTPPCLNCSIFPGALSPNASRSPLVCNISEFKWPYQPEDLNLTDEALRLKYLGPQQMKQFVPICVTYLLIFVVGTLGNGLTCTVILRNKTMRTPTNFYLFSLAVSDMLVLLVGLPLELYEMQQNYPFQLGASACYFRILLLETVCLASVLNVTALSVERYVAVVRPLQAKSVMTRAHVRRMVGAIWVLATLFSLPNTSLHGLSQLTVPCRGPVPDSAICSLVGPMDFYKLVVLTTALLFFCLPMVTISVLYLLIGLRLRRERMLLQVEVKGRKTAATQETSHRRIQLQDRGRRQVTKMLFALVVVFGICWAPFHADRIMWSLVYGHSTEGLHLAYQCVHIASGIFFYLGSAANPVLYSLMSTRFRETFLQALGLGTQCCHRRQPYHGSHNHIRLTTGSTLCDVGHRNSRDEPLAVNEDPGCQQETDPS
The experiment can be described thus: FLIPR calcium mobilization assay, mouse NMUR1-CTG. From the text: (§1) Human, mouse or rat cDNAs encoding NMUR1 or NMUR2 (as described in Howard et al. Nature 406: 70-74 (2000) were subcloned in pcDNA5 (Invitrogen) and transfected into FLP-In CHO cells and HEK-293 FLP-In cells purchased from Invitrogen (Carlsbad, Calif.) using lipofectamine (Invitrogen). The Flp-In system allows integration and expression of a particular gene of interest at a specific genomic location utilizing the Flp recombinase from yeast. The transfected cells were selected by growth in medium containing 200 μg/mL hygromycin (Invitrogen). Populations were frozen at early passage numbers, and these stocks were used for further studies. Stable clones that expressed the mRNAs were identified functionally by FLIPR as well as by RT-PCR. […] Two different rodent NMUR1 cell lines were thus generated: one with the codon as predicted from the genomic databases and another cell line with an engineered methionine (ATG) as the start codon. Additionally, stable cell lines expressing the human receptors were generated in HEK-293/aeq17 cells which stably express the aequorin gene under the CMV promoter. The human NMUR2 cDNA was cloned into pcDNA3.1 and human NMUR1 was subcloned into pIRES-puro (Clontech, Mountain View, Calif.), after transfection cells were selected in media containing G418 and either hygromycin (NMUR2) or puromycin (NMUR1).
(§2) The NMU receptors signal primarily through Gαq/11 proteins; therefore calcium mobilization assays can be utilized for functional activity.
(§3) Stable cell lines expressing human and or rodent NMUR1 or human NMUR2 receptors were plated at a density of 12,000 cells per well overnight on poly-lysine coated 384-well black-walled plates. The following day, the media was removed from the plates and the cells were subsequently loaded with Fluo-3 (Molecular Probes), a calcium sensitive dye, diluted in FLIPR buffer (1× Hank's buffered saline containing 20 mM HEPES, 0.1% BSA, 2.5 mM probenecid (Sigma) and 1.6 mM TR40). All reagents are from Invitrogen unless otherwise noted. Peptide stocks were resuspended in DMSO at a stock concentration of 2 mM and diluted in FLIPR buffer on the day of the experiment to a 4 μM working stock solution.
(§4) After a 90 minute incubation at room-temperature, cell plates were loaded onto a FLIPR (Molecular Devices) to monitor cellular fluorescence (excitation=488 nm; emission=540 nm) before and after compound/peptide addition. Eight to twelve point dose responses were tested on NMUR-expressing cell lines using FLIPR with 1 μM peptide as the highest dose. The response after peptide addition was taken as the maximum fluorescence units minus the fluorescence immediately prior to stimulation for each well. EC50 values were calculated using GraphPad Prism (San Diego, Calif.) software.
(§5) In vitro responses of Neuromedin U receptor agonists (NMU1 to NMU25) in the FLIPR assay for human (Table 3), mouse (Table 4) and rat (Table 5) NMUR1 and NMUR2. EC50s are reported in nM values. Percent activity refers to the maximum response at 1 μM compared to the hNMU-25 response at the same concentration. NT=not tested.

Another experiment has as its target T2, rat NMUR1-ATG (Rattus norvegicus, UniProt Q9JJI5).
T2 sequence (Q9JJI5 1-425): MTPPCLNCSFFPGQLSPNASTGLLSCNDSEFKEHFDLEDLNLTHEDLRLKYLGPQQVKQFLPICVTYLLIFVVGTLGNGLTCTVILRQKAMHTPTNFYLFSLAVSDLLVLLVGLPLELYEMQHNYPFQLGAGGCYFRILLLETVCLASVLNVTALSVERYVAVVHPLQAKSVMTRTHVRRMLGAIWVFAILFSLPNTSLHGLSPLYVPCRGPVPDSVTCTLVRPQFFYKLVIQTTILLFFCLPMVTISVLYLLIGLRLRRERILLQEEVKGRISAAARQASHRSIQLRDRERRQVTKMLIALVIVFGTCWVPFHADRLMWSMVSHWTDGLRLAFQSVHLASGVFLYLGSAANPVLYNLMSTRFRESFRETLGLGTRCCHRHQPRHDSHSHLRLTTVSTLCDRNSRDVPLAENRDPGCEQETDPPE
Put plainly: FLIPR calcium mobilization assay, rat NMUR1-ATG.
From the text: as §1, §2, §3, §4, §5

The next experiment addresses rat NMUR2 (Rattus norvegicus, UniProt Q9ESQ4). Put plainly: FLIPR calcium mobilization assay, rat NMUR2.
From the text: as §1, §2, §3, §4, §5

[1] abbreviates: maximum response at 1 μM compared to hNMU-25, mouse NMUR1-CTG.
Where [2] appears, read: maximum response at 1 μM compared to hNMU-25, rat NMUR1-ATG.
Where [3] appears, read: maximum response at 1 μM compared to hNMU-25, rat NMUR2.

Non-standard residues stand in square brackets, D forms with d. Residues, ends and D or L forms follow the SMILES beside them. *: point of attachment. Succinimide(1-Et,3-yl) = CCN1C(=O)CC(*)C1=O; Palmitoyl = CCCCCCCCCCCCCCCC(=O)*

Chain of rat NMUR2 (Q9ESQ4 whole entry): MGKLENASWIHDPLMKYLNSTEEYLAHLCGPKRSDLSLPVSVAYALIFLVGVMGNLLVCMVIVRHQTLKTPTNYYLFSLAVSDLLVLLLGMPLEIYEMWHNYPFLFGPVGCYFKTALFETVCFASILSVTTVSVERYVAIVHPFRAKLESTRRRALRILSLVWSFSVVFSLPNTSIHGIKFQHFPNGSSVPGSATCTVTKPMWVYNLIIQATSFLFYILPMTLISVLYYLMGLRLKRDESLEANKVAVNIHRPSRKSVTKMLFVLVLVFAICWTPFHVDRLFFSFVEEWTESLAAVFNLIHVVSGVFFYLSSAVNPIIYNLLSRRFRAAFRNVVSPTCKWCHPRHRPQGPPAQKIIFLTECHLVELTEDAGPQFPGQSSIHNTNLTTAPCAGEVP

For the molecule `CCN1C(=O)CC(SC[C@H](NC(C)=O)C(=O)N[C@@H](Cc2ccccc2)C(=O)N[C@@H](CCCNC(=N)N)C(=O)N[C@H](C(=O)N[C@@H](CC(=O)O)C(=O)N[C@@H](CCC(=O)O)C(=O)N[C@@H](CCC(=O)O)C(=O)N[C@@H](Cc2ccccc2)C(=O)N[C@@H](CCC(N)=O)C(=O)N[C@@H](CO)C(=O)N2CCC[C@H]2C(=O)N[C@@H](Cc2ccccc2)C(=O)N[C@@H](C)C(=O)N[C@@H](CO)C(=O)N[C@@H](CCC(N)=O)C(=O)N[C@@H](CO)C(=O)N[C@@H](CCCNC(=N)N)C(=O)NCC(=O)N[C@@H](Cc2ccc(O)cc2)C(=O)N[C@@H](Cc2ccccc2)C(=O)N[C@@H](CC(C)C)C(=O)N[C@@H](Cc2ccccc2)C(=O)N[C@@H](CCCNC(=N)N)C(=O)N2CCC[C@H]2C(=O)N[C@@H](CCCNC(=N)N)C(=O)N[C@@H](CC(N)=O)C(N)=O)C(C)C)C1=O` (stereo partly drawn) [NMU8] (Ac-C(Succinimide(1-Et,3-yl))FRVDEEFQSPFASQSRGYFLFRPRN-NH2), the figures for the “% Activity” value on Mouse NMUR1-CTG (setting [1]), on rat NMUR1-ATG (setting [2]) and at rat NMUR2 (setting [3]) were 100%, 97.2% and 94.7%, respectively.

As for `CCCCCCCCCCCCCCCC(=O)N[C@@H](CSC1CC(=O)N(CC)C1=O)C(=O)N[C@@H](Cc1ccccc1)C(=O)N[C@@H](CCCNC(=N)N)C(=O)N[C@H](C(=O)N[C@@H](CC(=O)O)C(=O)N[C@@H](CCC(=O)O)C(=O)N[C@@H](CCC(=O)O)C(=O)N[C@@H](Cc1ccccc1)C(=O)N[C@@H](CCC(N)=O)C(=O)N[C@@H](CO)C(=O)N1CCC[C@H]1C(=O)N[C@@H](Cc1ccccc1)C(=O)N[C@@H](C)C(=O)N[C@@H](CO)C(=O)N[C@@H](CCC(N)=O)C(=O)N[C@@H](CO)C(=O)N[C@@H](CCCNC(=N)N)C(=O)NCC(=O)N[C@@H](Cc1ccc(O)cc1)C(=O)N[C@@H](Cc1ccccc1)C(=O)N[C@@H](CC(C)C)C(=O)N[C@@H](Cc1ccccc1)C(=O)N[C@@H](CCCNC(=N)N)C(=O)N1CCC[C@H]1C(=O)N[C@@H](CCCNC(=N)N)C(=O)N[C@@H](CC(N)=O)C(N)=O)C(C)C` (stereo partly drawn) [NMU24] (Palmitoyl-C(Succinimide(1-Et,3-yl))FRVDEEFQSPFASQSRGYFLFRPRN-NH2), the “% Activity” value at Mouse NMUR1-CTG (setting [1]) is reported as 56.1%; on rat NMUR1-ATG (setting [2]) it was 80.8%; on rat NMUR2 (setting [3]) it was 52.2%.

`CCN1C(=O)CC(SC[C@H](NC(C)=O)C(=O)N[C@@H](C)C(=O)N[C@@H](CO)C(=O)N[C@@H](CCC(N)=O)C(=O)N[C@@H](CO)C(=O)N[C@@H](CCCNC(=N)N)C(=O)NCC(=O)N[C@@H](Cc2ccc(O)cc2)C(=O)N[C@@H](Cc2ccccc2)C(=O)N[C@@H](CC(C)C)C(=O)N[C@@H](Cc2ccccc2)C(=O)N[C@@H](CCCNC(=N)N)C(=O)N2CCC[C@H]2C(=O)N[C@@H](CCCNC(=N)N)C(=O)N[C@@H](CC(N)=O)C(N)=O)C1=O` (stereo partly drawn) [NMU17] (Ac-C(Succinimide(1-Et,3-yl))ASQSRGYFLFRPRN-NH2): on Mouse NMUR1-CTG (mouse NMUR1-CTG), the 50% effective concentration (EC50) was determined as 0.0029 µM. Besides, the “% Activity” value at Mouse NMUR1-CTG (setting [1]) came to 116.6%; on rat NMUR1-ATG (setting [2]), 100%; on rat NMUR2 (setting [3]), 100%.

For “Pam-C2FRVDEEFQSPFASQSRGYFLFRPRN-CONH2 ({Palmitoyl-C(PEG 40 kDa)}-FRVDEEFQSPFASQSRGYFLFRPRN-NH2) [NMU25, Pam = palmitoyl; C2 = Cys(PEG)240 kDa]”, the EC50 with Mouse NMUR1-CTG (mouse NMUR1-CTG) is 0.0603 µM; with rat NMUR1-ATG (rat NMUR1-ATG), 0.0201 µM; in the experiment with rat NMUR2 (rat NMUR2) it was 0.0378 µM. The “% Activity” value with rat NMUR1-ATG (setting [2]) is 99.6%; with rat NMUR2 (setting [3]), 96.4%.

With “Ac-C2FRVDEEFQSPFASQSRGYFLFRPRN-CONH2 [NMU9] ({Ac-C(PEG 40 kDa)}-FRVDEEFQSPFASQSRGYFLFRPRN-NH2) [C2 = Cys(PEG)240 kDa from Nektar (mPEG2-MAL-40 k)]”, the EC50 with rat NMUR1-ATG (rat NMUR1-ATG) amounted to 0.0097 µM; in the experiment with rat NMUR2 (rat NMUR2) it was 0.0045 µM.

As to “Ac-C4-C4-FRVDEEFQSPFASQSRGYFLFRPRN-CONH2 ({Ac-C(PEG 20 kDa)-C(PEG 20 kDa)}-FRVDEEFQSPFASQSRGYFLFRPRN-NH2) [NMU23, C4 = Cys(PEG)20 kDa]”, the half-maximal effective concentration (EC50) with Mouse NMUR1-CTG (mouse NMUR1-CTG) was determined as 0.77 µM; in the experiment with rat NMUR1-ATG (rat NMUR1-ATG) it was 0.127 µM; with rat NMUR2 (rat NMUR2), 0.0474 µM. Besides, the figures for the “% Activity” value in the experiment with Mouse NMUR1-CTG (setting [1]), in the experiment with rat NMUR1-ATG (setting [2]) and with rat NMUR2 (setting [3]) were 50.9%, 76.4% and 90.2%, respectively.

As to `CCN1C(=O)CC(SC[C@H](NC(C)=O)C(=O)N[C@@H](Cc2ccccc2)C(=O)N[C@@H](CCCNC(=N)N)C(=O)N[C@H](C(=O)N[C@@H](CC(=O)O)C(=O)N[C@@H](CCC(=O)O)C(=O)N[C@@H](CCC(=O)O)C(=O)N[C@@H](Cc2ccccc2)C(=O)N[C@@H](CCC(N)=O)C(=O)N[C@@H](CO)C(=O)N2CCC[C@H]2C(=O)N[C@@H](Cc2ccccc2)C(=O)N[C@@H](C)C(=O)N[C@@H](CO)C(=O)N[C@@H](CCC(N)=O)C(=O)N[C@@H](CO)C(=O)N[C@@H](CCCNC(=N)N)C(=O)NCC(=O)N[C@@H](Cc2ccc(O)cc2)C(=O)N[C@@H](Cc2ccccc2)C(=O)N[C@H](C)C(=O)N[C@@H](Cc2c[nH]c3ccccc23)C(=O)N[C@@H](CCCNC(=N)N)C(=O)N2CCC[C@H]2C(=O)N[C@@H](CCCNC(=N)N)C(=O)N[C@@H](CC(N)=O)C(N)=O)C(C)C)C1=O` (stereo partly drawn) [NMU13] (Ac-C(Succinimide(1-Et,3-yl))FRVDEEFQSPFASQSRGYF[dA]WRPRN-NH2), the EC50 on Mouse NMUR1-CTG (mouse NMUR1-CTG) was 0.141 µM; at rat NMUR2 (rat NMUR2), over 1 µM. Also, the IC50 was 0.014 µM on Mouse NMUR1-CTG (functional data, mouse R1-CTG) and over 1 µM on rat NMUR2 (functional data, rat R2). Also, the “% Activity” value at Mouse NMUR1-CTG (functional, mouse R1-CTG, relative to native hNMU responses) is recorded as 88%; at Mouse NMUR1-CTG (setting [1]) it was 73.6%; at rat NMUR1-ATG (functional, rat R1-ATG, relative to native hNMU responses) it was 92%; on rat NMUR1-ATG (setting [2]) it was 100%; at rat NMUR2 (functional, rat R2, relative to native hNMU responses), 24%; on rat NMUR2 (setting [3]), 0.0%.
